Ends that are not written are not given here.

The subject of experiment [1] is HeLa nuclear extracts enriched in HDAC1 and 2. The experiment can be described thus: HPLC-based and DTNB-based assays with HeLa nuclear extracts. The class given is biochemical, human. The conditions noted are these: for kobs (deacetylation by HeLa nuclear extracts): 30 min; for kobs (deacetylation by HeLa nuclear extracts) / substrate turnover: HPLC analysis; for substrate turnover: at 30 min; for dethioacetylation by HeLa nuclear extracts: HDAC8 replaced with HeLa nuclear extracts, HPLC-based and DTNB-based assay formats. How it is done: (§1) HPLC-based enzymatic assay. The HPLC data shown in FIG. 4 was generated using the following procedure. The HDAC8-catalyzed dethioacetylation reaction was performed in the same HDAC8 assay solution as above-described, except that no thioacetic acid was added but purified HDAC8 and its substrate (i.e. the above-described peptide ii) were added to final concentrations of 375 nM and 0.3 mM, respectively. An enzymatic reaction was initiated by the addition of HDAC8 at room temperature and was allowed to be incubated at room temperature until quenched at different time points with the following stop solution: 3.2 M guanidinium chloride in 100 mM of sodium phosphate (pH 6.8). One portion (40 uL) of the HDAC8 assay mixture was quenched with 80 uL of the above stop solution, and was analyzed as set forth above by RP-HPLC with a C18 analytical column (100 Å, 0.46×25 cm), eluting with the following gradient of double deionized water containing 0.05% (v/v) trifluoroacetic acid (mobile phase A) and acetonitrile containing 0.05% (v/v) trifluoroacetic acid (mobile phase B): linear increase from 0% B to 35% B from 0-40 min (1 mL/min), and ultraviolet (UV) monitoring at 214 nm. The enzymatically formed dethioacetylated product (i.e. the above-referenced peptide i) was confirmed by its comigration with the chemically synthesized authentic sample and by mass spectrometric analysis with MALDI-TOF, and was quantified by HPLC peak integration and comparison with that of the synthetic authentic sample. The same assay protocol was used when the HeLa nuclear extracts were used instead of human HDAC8. Nearly same assay protocols were used when purified HDAC1 and HDAC2 were employed instead of HDAC8, with the following exceptions: i) For HDAC1 assays, 50 mM Tris.HCl (pH 8.0) was used instead of 25 mM Tris.HCl (pH 8.0); ii) HDAC2 assays were performed at 30° C. instead of RT; iii) HDAC1 and HDAC2 assay solutions were all quenched with the following stop solution: 1.0 M HCl and 0.16 M acetic acid. These changes were instituted to more clearly assess the selectivity.
DTNB-based enzymatic assay. The DTNB data shown in FIG. 4 was generated using the following procedure. A second portion (300 µL) of the above HDAC8 assay mixture was quenched with 600 µL of the stop solution: 3.2 M guanidinium chloride in 100 mM of sodium phosphate (pH 6.8), and was analyzed by the DTNB-based assay procedure according to the invention, i.e. 60 min after the quench and DTNB (100 µL) addition, A412 was recorded for each sample derived at different time points of the same assay reaction. Again, the same assay protocol was used when the HeLa nuclear extracts were used instead of human HDAC8. To measure the kinetic parameters for the thioacetyl-lysine p53 peptide as an in vitro HDAC8 substrate, all the assay reactions contained 375 nM of HDAC8, a range of substrate concentrations varied around the Km value, and were allowed to proceed at room temperature for 1 hour before quenching. Reaction velocities were determined under initial condition (substrate turnover <10%). This experiment was performed twice, and each duplicate measurement agreed within 20%. By using a non-linear least squares approach with the computer program Kaleidagraph (Reading, Pa., USA), kinetic parameters (kcat and Km) were derived from the Michaelis-Menten plot based on the experimental data.
Assay with HeLa nuclear extracts. In order to examine the selectivity of our newly developed DTNB-based spectrophotometric assay among different classical HDAC enzymes, we initially performed both the HPLC-based and the DTNB-based assays with the HeLa nuclear extracts enriched in HDAC1 and 2. The procedures for the HDAC8 assay were followed.

Experiment [2] addresses purified human HDAC2 (Homo sapiens, UniProt Q92769). Kind of experiment: HPLC-based assay with purified HDAC2. The class given is biochemical. The following applies: for dethioacetylation by HDAC2: purified HDAC2, 30° C., HPLC-based assay format. Here is the method:
as §1, with “selectivity. […]” for “selectivity.”

Experiment [3] deals with purified human HDAC1 (Homo sapiens, UniProt Q13547). The experiment can be described thus: HPLC-based assay with purified HDAC1. The class given is biochemical. The conditions noted are these: for dethioacetylation by HDAC1: purified HDAC1, HPLC-based assay format. Here is the method: as §1, with “selectivity. […]” for “selectivity.”
Sequence of purified human HDAC1 (Q13547 whole entry): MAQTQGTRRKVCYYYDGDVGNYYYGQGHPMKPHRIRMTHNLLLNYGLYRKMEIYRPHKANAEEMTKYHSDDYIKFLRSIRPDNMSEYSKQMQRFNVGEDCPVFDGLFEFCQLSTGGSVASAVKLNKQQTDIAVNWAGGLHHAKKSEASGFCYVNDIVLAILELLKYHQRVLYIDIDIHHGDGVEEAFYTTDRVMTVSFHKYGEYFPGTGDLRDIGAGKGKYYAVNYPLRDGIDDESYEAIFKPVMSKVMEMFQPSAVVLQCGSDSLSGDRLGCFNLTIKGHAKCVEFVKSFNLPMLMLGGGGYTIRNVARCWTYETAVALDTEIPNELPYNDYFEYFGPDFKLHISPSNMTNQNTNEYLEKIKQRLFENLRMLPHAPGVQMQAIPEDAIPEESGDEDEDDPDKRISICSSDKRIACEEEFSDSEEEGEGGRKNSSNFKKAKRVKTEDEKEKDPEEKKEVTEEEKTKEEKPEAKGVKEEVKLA
Where [4] appears, read: listed as thioacetyl-lysin peptide.

Sequence of purified human HDAC2 (Q92769 whole entry): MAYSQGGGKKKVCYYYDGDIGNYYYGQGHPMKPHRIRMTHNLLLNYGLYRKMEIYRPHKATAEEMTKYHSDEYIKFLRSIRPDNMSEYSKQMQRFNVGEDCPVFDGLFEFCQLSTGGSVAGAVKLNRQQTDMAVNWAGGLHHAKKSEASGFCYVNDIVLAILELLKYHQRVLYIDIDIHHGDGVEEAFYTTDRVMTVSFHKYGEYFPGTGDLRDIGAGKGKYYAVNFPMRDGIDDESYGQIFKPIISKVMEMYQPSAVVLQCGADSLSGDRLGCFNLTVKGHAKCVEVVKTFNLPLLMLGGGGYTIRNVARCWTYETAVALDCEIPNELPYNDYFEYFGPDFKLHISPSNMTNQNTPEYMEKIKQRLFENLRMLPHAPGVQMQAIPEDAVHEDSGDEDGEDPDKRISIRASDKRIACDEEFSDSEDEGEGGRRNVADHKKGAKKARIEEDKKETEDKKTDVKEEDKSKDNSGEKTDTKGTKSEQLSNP

On to AcNH—RH(AcK)—(AcK)—CONH2, for which the “kobs (deacetylation by HeLa nuclear extracts)” value in experiment [1] is listed as 0.29±0.02 uM/(min·4 uL of the nuclear extracts).

In the case of “acetyl-lysine p53 peptide: human p53 C-terminal peptide (amino acid residue 372-389) containing Nε-acetyl-lysine at the 382 position (KKGQSTSRHKK(Ac)LMFKTEG; UniProt P04637 372-389, looked up, fragment)”, the “kobs (deacetylation by HDAC2)” value in experiment [2] (purified HDAC2, at 30 min) turned out to be 6.78 ± 2.39 min⁻¹. In addition, the “kobs (deacetylation by HDAC1)” value in experiment [3] (purified HDAC1, at 2 h) is 0.41 ± 0.23 min⁻¹. Also, in experiment [1], the “kobs (deacetylation by HeLa nuclear extracts)” value is listed as 0.23±0.01 uM/(min·4 uL of the nuclear extracts). Further, the substrate turnover in experiment [1] (4 uL of the HeLa nuclear extracts (9 mg of protein per mL)) is 2.3%; in experiment [1] (12 uL of the HeLa nuclear extracts (9 mg of protein per mL)), 6.5%.

Regarding `CSCC[C@H](NC(=O)[C@H](CC(C)C)NC(=O)[C@H](CCCCNC(C)=S)NC(=O)[C@H](CCCCN)NC(=O)[C@H](Cc1c[nH]cn1)NC(=O)[C@H](CCCNC(=N)N)NC(=O)[C@H](CO)NC(=O)[C@@H](NC(=O)[C@H](CO)NC(=O)[C@H](CCC(N)=O)NC(=O)CNC(=O)[C@H](CCCCN)NC(=O)[C@@H](N)CCCCN)[C@@H](C)O)C(=O)N[C@@H](Cc1ccccc1)C(=O)N[C@@H](CCCCN)C(=O)N[C@H](C(=O)N[C@@H](CCC(=O)O)C(=O)NCC(=O)O)[C@@H](C)O` [thioacetyl-lysine p53 peptide, H2N-KKGQSTSRHK(ThAcK)LMFKTEG-COOH], the entries for the “dethioacetylation by HDAC2” value in experiment [2] and in experiment [2] (setting [4]) were “no detectable dethioacetylation” and “did not serve as a substrate”, respectively. Further, the “dethioacetylation by HDAC1” value is given as “no detectable dethioacetylation” in experiment [3] and “did not serve as a substrate” in experiment [3] (setting [4]). The entries for the “dethioacetylation by HeLa nuclear extracts” value in experiment [1] and in experiment [1] (listed as thioacetyl-lysine peptide) were “no detectable dethioacetylation” and “did not serve as a substrate”, respectively.

As to AcNH—RH(ThAcK)(ThAcK)—CONH2, the “dethioacetylation by HeLa nuclear extracts” value in experiment [1] is recorded as “no detectable dethioacetylation”.

Values taken from patent US20080286815A1, “SPECTROPHOTOMETRIC ASSAY FOR HUMAN HISTONE DEACETYLASE 8” (THE UNIVERSITY OF AKRON, priority 2007, published 2008).
